{
  "source": "paper PMC8358460",
  "about": "“Structural basis for the binding of the cancer targeting scorpion toxin, ClTx, to the vascular endothelia growth factor receptor neuropilin-1” (Current Research in Structural Biology, 2021)",
  "key": {"human NRP1-b1 domain [1]": {"molecular_target": "T1, human NRP1-b1 domain (Homo sapiens, UniProt O14786)", "T1 sequence (O14786 273-427)": "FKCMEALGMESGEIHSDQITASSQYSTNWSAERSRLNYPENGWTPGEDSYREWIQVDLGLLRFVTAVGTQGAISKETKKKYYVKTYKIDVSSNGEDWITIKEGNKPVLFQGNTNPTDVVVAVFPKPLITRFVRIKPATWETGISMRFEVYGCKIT", "assay": "NMR competition titration of 15N-ClTx/NRP1-b1 with EG00229", "assay_type": "binding", "conditions": "413 μM EG00229 added to 55 μM 15N-ClTx + 125 μM NRP1-b1; 50 mM sodium citrate pH 5.5, 150 mM NaCl, 5% D2O, 298 K"}, "human NRP1-b1 domain [2]": {"molecular_target": "T1, human NRP1-b1 domain", "assay": "ITC competition: ClTx injected into NRP1-b1 in presence of EG00229", "assay_type": "binding", "conditions": "800 μM ClTx into 40 μM NRP1-b1 + 200 μM EG00229; 50 mM sodium citrate pH 5.5, 150 mM NaCl, 32 °C"}, "human NRP1-b1 domain [3]": {"molecular_target": "T1, human NRP1-b1 domain", "assay": "ITC measurement of binding to NRP1-b1 domain", "conditions": "pH 5.5, 32 °C"}},
  "note": "“Also recorded” adds a separate entry of the source.",
  "data": [
    {"smiles": "NC(N)=NCCC[C@H](NC(=O)c1sccc1NS(=O)(=O)c1cccc2nsnc12)C(=O)O", "note": "[EG00229]", "values": [
      {"measurement": "recovery of backbone signal of 15N ClTx on addition of EG00229", "setting": "human NRP1-b1 domain [1]", "result": "completely recovered"},
      {"measurement": "inhibition of the ClTx–NRP1-b1 interaction by EG00229", "setting": "human NRP1-b1 domain [2]", "result": "fully inhibited; also recorded: completely blocks chlorotoxin from binding"},
      {"measurement": "binding strength, in words", "setting": "human NRP1-b1 domain [3]", "result": "strong binding"}
    ]}
  ]
}
